This note sets out measurements from patent publication US4554284A, “7-(2-Aminoethyl)-1,3-benzthia- or oxa-zol-2(3H)-ones” (Smithkline Beckman Corporation, priority 1984, dated 1985).

Molecules are shown by their SMILES. Like-named read-outs stand apart in the source and are kept apart here.

The test deals with T1, D2-receptors (presynaptic dopaminergic receptors) (Oryctolagus cuniculus, UniProt G1T1Q0).
T1 construct: perfused rabbit ear artery protocol; from tissue; host or cells: rabbit ear artery (perfused, isolated)
Put plainly: perfused rabbit ear artery protocol (D2-agonist activity). In kind it is cell-based.

Setting [1] is: perfused rabbit ear artery, D2-agonist activity, read-out: EC50.

T1 sequence (G1T1Q0 1-443): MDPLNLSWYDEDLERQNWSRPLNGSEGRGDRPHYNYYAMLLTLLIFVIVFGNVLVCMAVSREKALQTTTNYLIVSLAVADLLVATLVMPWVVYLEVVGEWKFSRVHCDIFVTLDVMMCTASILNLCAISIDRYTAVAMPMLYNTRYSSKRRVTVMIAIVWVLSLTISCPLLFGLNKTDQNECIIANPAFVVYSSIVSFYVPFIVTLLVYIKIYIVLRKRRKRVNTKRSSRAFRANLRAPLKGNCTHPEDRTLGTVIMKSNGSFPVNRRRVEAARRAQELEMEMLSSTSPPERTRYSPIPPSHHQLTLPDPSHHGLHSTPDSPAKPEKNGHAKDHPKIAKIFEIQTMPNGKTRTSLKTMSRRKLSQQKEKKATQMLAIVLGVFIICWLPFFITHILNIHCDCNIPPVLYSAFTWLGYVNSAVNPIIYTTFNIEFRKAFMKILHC

For the compound `CCCN(CCC)CCc1c(Cl)cc(O)c2nc(O)sc12` [B, 4-hydroxy-6-chloro-7-[2-(di-n-propylamino)ethyl]-1,3-benzthiazol-2(3H)-one], under setting [1], the EC50 was found to be 50 nM. With `CCCN(CCC)CCc1ccc(O)c2[nH]c(=O)oc12` [C, 4-hydroxy-7-[2-(di-n-propylamino)ethyl]-1,3-benzoxazol-2(3H)-one], under setting [1], the EC50 amounted to 8 nM.

Turning to `CCCN(CCC)CCc1ccc(O)c2[nH]c(=O)sc12` [Compound A, 4-hydroxy-7-[2-(di-n-propylamino)ethyl]-1,3-benzthiazol-2(3H)-one], the “times more potent than its oxa congener” value is reported as ~40 times and the “times more potent than the corresponding indolone” value stood at 10 times. For the same compound, under setting [1], the EC50 stood at 0.2 nM.

As for `NCCc1ccc(O)c(O)c1` [D, dopamine, reference compound], the concentration giving a half-maximal response (EC50) came to 40 nM. As to `CCCN(CCC)CCc1ccc(O)c2[nH]c(=O)ccc12` [E, 8-hydroxy-5-[2-(di-n-propylamino)ethyl]-carbostyril, reference compound], the EC50 under setting [1] was found to be 200 nM.

The EC50 is the midpoint of the concentration-response curve.
